Laboratory results taken from ChEMBL document CHEMBL1130559, “The synthesis and antitumor evaluation of unsymmetrical bis-imides” (Bioorg Med Chem Lett, 1997).

Legend:
L1210 = test: In vitro 50% inhibitory activity against L1210 murine leukemia; assay type: functional, cell-based; details: Mus musculus
Nucleic Acid [1] = test: In vitro DNA poly-dAdT binding by ethidium bromide displacement; assay type: nucleic-acid assay
Nucleic Acid [2] = test: In vitro DNA poly-dGdC binding by ethidium bromide displacement; assay type: nucleic-acid assay
Mus musculus [3] = test: Compound was evaluated in vivo for the maximum tolerated dose (MTD) against MX-1 (breast) human solid tumors implanted in nude mice; assay type: functional
Mus musculus [4] = test: Compound was evaluated in vivo for the percent tumor growth inhibition against human solid tumors implanted in nude mice MX-1 (breast), iv; assay type: functional
Mus musculus [5] = test: Compound was evaluated in vivo for the maximum tolerated dose against human solid tumors implanted in nude miceDLD-2 (colon); assay type: functional
Mus musculus [6] = test: Compound was evaluated in vivo for the percent tumor growth inhibition against human solid tumors implanted in nude mice DLD-2 (colon), iv; assay type: functional
Mus musculus [7] = test: Compound was evaluated in vivo for the maximum tolerated dose against human solid tumors implanted in nude mice MX-1 (breast); assay type: functional
Mus musculus [8] = test: Compound was evaluated in vivo for the percent tumor growth inhibition against human solid tumors implanted in nude mice LX-1 (lung), iv; assay type: functional
[9] = Solubility in water; assay type: physicochemical; details: read-out: S
Mus musculus [10] = test: Compound was evaluated in vivo for the maximum tolerated dose against human solid tumors implanted in nude miceLX-1 (lung); assay type: functional
Mus musculus [11] = test: Compound was evaluated in vivo for the maximum tolerated dose against the following human solid tumors implanted in nude miceMX-1 (breast); assay type: functional
Mus musculus [12] = test: Compound was evaluated in vivo for the maximum tolerated dose against the following human solid tumors implanted in nude miceDLD-2 (colon); assay type: functional
Mus musculus [13] = test: Compound was evaluated in vivo for the maximum tolerated dose against the following human solid tumors implanted in nude miceLX-1 (lung); assay type: functional
Mus musculus [14] = test: Compound was evaluated in vivo for the maximum tolerated dose against the following human solid tumors implanted in nude mice MX-1 (breast); assay type: functional

SMILES	IC50 (L1210)	IC50 (Nucleic Acid [1])	IC50 (Nucleic Acid [2])	solubility [9]	also measured
COc1ccc2cc3c4c(cccc4c2c1)C(=O)N([C@H](C)CNCCNC[C@@H](C)N1C(=O)c2cccc4cc([N+](=O)[O-])cc(c24)C1=O)C3=O	250 nM	800 nM	130 nM	–	–
CS(=O)(=O)O.CS(=O)(=O)O.Cc1cnc2c(c1)cc1c3c(cc([N+](=O)[O-])cc32)C(=O)N([C@H](C)CNCCNC[C@@H](C)N2C(=O)c3cccc4cc([N+](=O)[O-])cc(c34)C2=O)C1=O	41 nM	610 nM	73 nM	–	MTD (Mus musculus [3]): 6 mg/kg
C[C@H](CNCCNC[C@@H](C)N1C(=O)c2cccc3c2c(cc2ccc(C(F)(F)F)cc23)C1=O)N1C(=O)c2cccc3cc([N+](=O)[O-])cc(c23)C1=O	450 nM	2550 nM	170 nM	–	–
C[C@H](CNCCNC[C@@H](C)N1C(=O)c2cccc3c2c(cc2cc(F)cnc23)C1=O)N1C(=O)c2cccc3cc([N+](=O)[O-])cc(c23)C1=O	64 nM	1420 nM	59 nM	–	–
CS(=O)(=O)O.CS(=O)(=O)O.C[C@H](CNCCNC[C@@H](C)N1C(=O)c2ccc3c4c(ccc(c24)C1=O)CC3)N1C(=O)c2cccc3cc([N+](=O)[O-])cc(c23)C1=O	75 nM	1570 nM	110 nM	29 mg/mL	Inhibition (Mus musculus [4]): 97%; MTD (Mus musculus [5]): 12.5 mg/kg; Inhibition (Mus musculus [6]): 98%; MTD (Mus musculus [7]): 12.5 mg/kg; Inhibition (Mus musculus [8]): 95%; MTD (Mus musculus [10]): 10 mg/kg
C[C@H](CNCCNC[C@@H](C)N1C(=O)c2cccc3c2c(cc2ccc(F)cc23)C1=O)N1C(=O)c2cccc3cc([N+](=O)[O-])cc(c23)C1=O	310 nM	1510 nM	110 nM	–	–
C[C@H](CNCCNC[C@@H](C)N1C(=O)c2cc([N+](=O)[O-])cc3c2c(cc2ccncc23)C1=O)N1C(=O)c2cccc3cc([N+](=O)[O-])cc(c23)C1=O	51 nM	880 nM	62 nM	–	–
C[C@H](CNCCNC[C@@H](C)N1C(=O)c2cccc3c2c(cc2ccccc23)C1=O)N1C(=O)c2cccc3cc([N+](=O)[O-])cc(c23)C1=O	420 nM	1020 nM	970 nM	–	–
CS(=O)(=O)O.CS(=O)(=O)O.C[C@H](CNCCNC[C@@H](C)N1C(=O)c2cccc3c2c(cc2ccncc23)C1=O)N1C(=O)c2cccc3cc([N+](=O)[O-])cc(c23)C1=O	35 nM	1200 nM	88 nM	65 mg/mL	Inhibition (Mus musculus [6]): 99%; MTD (Mus musculus [11]): 6 mg/kg; Inhibition (Mus musculus [8]): 94%; MTD (Mus musculus [12]): 6 mg/kg; MTD (Mus musculus [13]): 6 mg/kg
C[C@H](CNCCNC[C@@H](C)N1C(=O)c2cc([N+](=O)[O-])cc3c2c(cc2cccnc23)C1=O)N1C(=O)c2cccc3cc([N+](=O)[O-])cc(c23)C1=O	24 nM	1570 nM	85 nM	–	–
CS(=O)(=O)O.CS(=O)(=O)O.C[C@H](CNCCNC[C@@H](C)N1C(=O)c2cccc3c2c(cc2cccnc23)C1=O)N1C(=O)c2cccc3cc([N+](=O)[O-])cc(c23)C1=O	250 nM	1080 nM	73 nM	> 35.6 mg/mL	MTD (Mus musculus [3]): 6.2 mg/kg
CS(=O)(=O)O.CS(=O)(=O)O.C[C@H](CNCCNC[C@@H](C)N1C(=O)c2cccc3cc([N+](=O)[O-])cc(c23)C1=O)N1C(=O)c2cccc3cc([N+](=O)[O-])cc(c23)C1=O [BISNAFIDE DIMESYLATE]	34 nM	1000 nM	40 nM	3.5 mg/mL	Inhibition (Mus musculus [4]): >96%; Inhibition (Mus musculus [6]): 99%; Inhibition (Mus musculus [8]): 96%; MTD (Mus musculus [12]): 10 mg/kg; MTD (Mus musculus [13]): 10 mg/kg; MTD (Mus musculus [14]): 10 mg/kg
